Assay results published in ChEMBL document CHEMBL1201862, “PubChem BioAssay data set” (2004).
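Briefly, cells in 96-well plates were exposed to five compound concentrations for 48 h, and endpoints were estimated by linear interpolation. GI50 = concentration required for 50% inhibition of growth.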 The source made the active and inactive calls. Cut-off read from the data, not from the text of the source: active = GI50 up to about 1.1 µM and inactive = higher.

Columns and labels:
Assay in all cases: growth of human tumour cells (NCI), 48 h
786-0 = system: 786-0
A498 = system: A498
ACHN = system: ACHN
BT-549 = system: BT-549
COLO 205 = system: COLO 205
HL-60 = system: HL-60
IGROV-1 = system: IGROV-1
K562 = system: K562
MCF7 = system: MCF7
MDA-N = system: MDA-N
MOLT-4 = system: MOLT-4
NCI-H226 = system: NCI-H226
NCI-H23 = system: NCI-H23
OVCAR-3 = system: OVCAR-3
OVCAR-4 = system: OVCAR-4
SF-539 = system: SF-539
SR = system: SR
TK-10 = system: TK-10
SK-MEL-2 = system: SK-MEL-2

Row | Structure (SMILES) | GI50 (786-0) | GI50 (A498) | GI50 (ACHN) | GI50 (BT-549) | GI50 (COLO 205) | GI50 (HL-60) | GI50 (IGROV-1) | GI50 (K562) | GI50 (MCF7) | GI50 (MDA-N) | GI50 (MOLT-4) | GI50 (NCI-H226) | GI50 (NCI-H23) | GI50 (OVCAR-3) | GI50 (OVCAR-4) | GI50 (SF-539) | GI50 (SR) | GI50 (TK-10) | GI50 (SK-MEL-2)
1 | NC(=O)C(N)Cc1ccc(O)cn1 (configuration not stated) | > 100 µM (inactive) | > 100 µM (inactive) | > 100 µM (inactive) | > 100 µM (inactive) | > 100 µM (inactive) | > 100 µM (inactive) | > 100 µM (inactive) | > 100 µM (inactive) | > 100 µM (inactive) | > 100 µM (inactive) | > 100 µM (inactive) | > 100 µM (inactive) | > 100 µM (inactive) | > 100 µM (inactive) | > 100 µM (inactive) | > 100 µM (inactive) | > 100 µM (inactive) | > 100 µM (inactive) | 
2 | COC(=O)C(COC(=O)/C=C/c1ccc(OC(C)=O)c(OC(C)=O)c1)NC(=O)/C=C/c1ccc(OC(C)=O)c(OC(C)=O)c1 (configuration not stated) | 17.9 µM (inactive) | > 100 µM (inactive) | 25.6 µM (inactive) | 25.2 µM (inactive) | 20.7 µM (inactive) | 25.2 µM (inactive) | 43.6 µM (inactive) | > 100 µM (inactive) | 28.3 µM (inactive) | 20.5 µM (inactive) | 38.3 µM (inactive) | 36.2 µM (inactive) | 25.9 µM (inactive) | 15.4 µM (inactive) | 20.7 µM (inactive) | 31.8 µM (inactive) | 18 µM (inactive) |  | 18.3 µM (inactive)
3 | CCOC(=O)C(Cc1cccn1C(=O)OC(C)(C)C)[N+](=O)[O-] (configuration not stated) | 21.9 µM (inactive) | 23.5 µM (inactive) | 22.3 µM (inactive) | 30.8 µM (inactive) | 20.8 µM (inactive) | 21.1 µM (inactive) | 21.5 µM (inactive) | 24.7 µM (inactive) | 37.7 µM (inactive) | 26.7 µM (inactive) | 20 µM (inactive) | 26.1 µM (inactive) | 34.8 µM (inactive) | 32.1 µM (inactive) | 28.6 µM (inactive) | 22.1 µM (inactive) | 19 µM (inactive) | 22.3 µM (inactive) | 20.1 µM (inactive)
4 | CN1CCc2ccccc2C1Cc1ccccc1NC(=O)c1sc2ccccc2c1Cl (configuration not stated) | > 100 µM (inactive) | > 100 µM (inactive) | > 100 µM (inactive) | > 100 µM (inactive) | > 100 µM (inactive) | 42.3 µM (inactive) | > 100 µM (inactive) | > 100 µM (inactive) | > 100 µM (inactive) | > 100 µM (inactive) | > 100 µM (inactive) | > 100 µM (inactive) | > 100 µM (inactive) | > 100 µM (inactive) | > 100 µM (inactive) | > 100 µM (inactive) | > 100 µM (inactive) | > 100 µM (inactive) | > 100 µM (inactive)
5 | CN(C)Cc1c[nH]c2ncnc(O)c12 | 23.2 µM (inactive) | > 100 µM (inactive) | 38 µM (inactive) | > 100 µM (inactive) | 35.8 µM (inactive) | 19.7 µM (inactive) | 35 µM (inactive) | 20.7 µM (inactive) | 24.7 µM (inactive) | 23.1 µM (inactive) | 7.8 µM (inactive) | > 100 µM (inactive) | 32.2 µM (inactive) | > 100 µM (inactive) | 32.8 µM (inactive) | 22.4 µM (inactive) | 27.1 µM (inactive) | 37.7 µM (inactive) | 43.6 µM (inactive)
6 | COc1cc(C)cc2c1c(=O)c1ccccc1n2C | 38.5 µM (inactive) | 43.3 µM (inactive) | 36 µM (inactive) | 37.9 µM (inactive) | 27.2 µM (inactive) | 33.7 µM (inactive) | 42.1 µM (inactive) | 18.2 µM (inactive) | 16.4 µM (inactive) | 19 µM (inactive) | 31.3 µM (inactive) | 33.5 µM (inactive) | 40.8 µM (inactive) | 37.6 µM (inactive) | 35.3 µM (inactive) | 20.2 µM (inactive) | 22.1 µM (inactive) | 56.4 µM (inactive) | 15.9 µM (inactive)
7 | CC(C)=CCC/C(C)=C/CC/C(C)=C/CC/C(C)=C/CC/C(C)=C/CC/C(C)=C/CC/C(C)=C/CC/C(C)=C/CC/C(C)=C/CO [SOLANESOL] | > 100 µM (inactive) | > 100 µM (inactive) | > 100 µM (inactive) | > 100 µM (inactive) | > 100 µM (inactive) | 77.4 µM (inactive) | > 100 µM (inactive) | > 100 µM (inactive) | 87.7 µM (inactive) | > 100 µM (inactive) | > 100 µM (inactive) | > 100 µM (inactive) | > 100 µM (inactive) | > 100 µM (inactive) | > 100 µM (inactive) | > 100 µM (inactive) | > 100 µM (inactive) | > 100 µM (inactive) | > 100 µM (inactive)
8 | C=CC(=O)N1C/C(=C\c2ccc(F)cc2)C(=O)/C(=C/c2ccc(F)cc2)C1 | 0.222 µM (active) | 0.568 µM (active) | 0.259 µM (active) | 0.336 µM (active) | 0.391 µM (active) | 0.728 µM (active) | 0.437 µM (active) | 0.185 µM (active) | 0.168 µM (active) | 0.157 µM (active) | 0.207 µM (active) | 0.352 µM (active) | 1.27 µM (inactive) | 0.36 µM (active) | 0.339 µM (active) | 0.214 µM (active) | 0.0491 µM (active) | 1 µM (active) | 0.843 µM (active)
9 | CCN(CC)P(=O)(c1ccc2c(c1)OCCOCCOCCOCCO2)N(CC)CC | > 100 µM (inactive) | > 100 µM (inactive) | > 100 µM (inactive) | > 100 µM (inactive) | > 100 µM (inactive) | > 100 µM (inactive) | > 100 µM (inactive) | > 100 µM (inactive) | > 100 µM (inactive) | > 100 µM (inactive) | > 100 µM (inactive) | > 100 µM (inactive) | > 100 µM (inactive) |  |  | > 100 µM (inactive) | > 100 µM (inactive) | > 100 µM (inactive) | 
10 | NNc1nc2ccccc2c(=O)n1NC(=O)C(=O)Nc1cccc(C(F)(F)F)c1 | > 100 µM (inactive) | > 100 µM (inactive) | > 100 µM (inactive) | > 100 µM (inactive) |  | > 100 µM (inactive) | 47.6 µM (inactive) | > 100 µM (inactive) | > 100 µM (inactive) | > 100 µM (inactive) | > 100 µM (inactive) | > 100 µM (inactive) | > 100 µM (inactive) | > 100 µM (inactive) | > 100 µM (inactive) | > 100 µM (inactive) | > 10 µM (inactive) | > 100 µM (inactive) | > 100 µM (inactive)
11 | Cc1cc(C)c2c(c1)C/C(=C\c1ccccc1C(=O)O)C2=O | > 100 µM (inactive) | 51.5 µM (inactive) | > 100 µM (inactive) | 29.9 µM (inactive) |  | > 100 µM (inactive) | > 100 µM (inactive) | > 100 µM (inactive) | 78.2 µM (inactive) | > 100 µM (inactive) | 76.4 µM (inactive) | 56.9 µM (inactive) | > 100 µM (inactive) | 23.7 µM (inactive) | > 100 µM (inactive) | 39.4 µM (inactive) | > 100 µM (inactive) | > 100 µM (inactive) | 
12 | O=C(Nc1ccccc1)c1cc(S(=O)(=O)Nc2n[nH]c(=O)[nH]2)c(SSc2cc(Cl)c(C(=O)Nc3ccccc3)cc2S(=O)(=O)Nc2n[nH]c(=O)[nH]2)cc1Cl | > 100 µM (inactive) | > 100 µM (inactive) | > 100 µM (inactive) | > 100 µM (inactive) | > 100 µM (inactive) | > 100 µM (inactive) | > 100 µM (inactive) | 55.5 µM (inactive) | > 100 µM (inactive) | > 100 µM (inactive) | > 100 µM (inactive) | > 100 µM (inactive) | > 100 µM (inactive) | > 100 µM (inactive) | > 100 µM (inactive) |  | > 100 µM (inactive) | > 100 µM (inactive) | > 100 µM (inactive)
13 | CCOP(=O)(OCC)/C(C#N)=C/c1nccn1C | > 100 µM (inactive) | > 100 µM (inactive) | > 100 µM (inactive) | > 100 µM (inactive) | > 100 µM (inactive) | > 100 µM (inactive) |  | > 100 µM (inactive) | > 100 µM (inactive) | > 100 µM (inactive) | > 100 µM (inactive) | > 100 µM (inactive) | > 100 µM (inactive) | > 100 µM (inactive) |  | > 100 µM (inactive) | > 100 µM (inactive) | > 100 µM (inactive) | > 100 µM (inactive)
14 | C1=N\c2ccc(cc2)/N=C\c2ccc(cc2)OCc2cccc(n2)COc2ccc/1cc2 | > 100 µM (inactive) | > 100 µM (inactive) | > 100 µM (inactive) | > 100 µM (inactive) | > 100 µM (inactive) | > 100 µM (inactive) | > 100 µM (inactive) | > 100 µM (inactive) | > 100 µM (inactive) | > 100 µM (inactive) | > 100 µM (inactive) | > 100 µM (inactive) | > 100 µM (inactive) | > 100 µM (inactive) | > 100 µM (inactive) | > 100 µM (inactive) | > 100 µM (inactive) |  | > 100 µM (inactive)
15 | O=C(O)c1c2c(cc3c1CC1(Cc4ccccc4C1)C3)CCC2 | 80 µM (inactive) | > 100 µM (inactive) | 32.7 µM (inactive) | 20.8 µM (inactive) | 57.7 µM (inactive) | 41.4 µM (inactive) | 59.4 µM (inactive) | 59.3 µM (inactive) | 96.2 µM (inactive) | > 100 µM (inactive) | 82.8 µM (inactive) | > 100 µM (inactive) | 67.5 µM (inactive) | 68.1 µM (inactive) | 58.2 µM (inactive) | > 100 µM (inactive) | 52.8 µM (inactive) | > 100 µM (inactive) | 
